The results in this text go back to paper PMC4030970, “Structural Evidence for the Tetrameric Assembly of Chemokine CCL11 and the Glycosaminoglycan Arixtra™” (Biomolecules, 2013).

One assay addresses T1, CCL2 (Homo sapiens, UniProt P13500).
T1 construct: construct and preparation not described in the main text; monomer-dimer, tetramer with saturating GAG
Nature of the assay: isothermal titration calorimetry. In kind it is binding. (In general: ITC needs no label: the signal is the heat of the interaction.)

A further assay concerns the target T2, CCL11 (Eotaxin-1) (Homo sapiens, UniProt P51671).
T2 construct: mature wild-type CCL11; monomer mass about 8360 Da from m/z; monomer-dimer-tetramer mixture
Put plainly: isothermal titration calorimetry. The class given is binding.

One may read the Kd as the free concentration of one partner at which half of the binding sites on the other are occupied at equilibrium, for simple one-to-one binding. Lower therefore signals tighter binding.

T1 sequence (P13500 24-99): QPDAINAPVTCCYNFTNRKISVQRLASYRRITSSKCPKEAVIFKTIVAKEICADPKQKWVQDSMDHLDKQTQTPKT
T2 sequence (P51671 24-97): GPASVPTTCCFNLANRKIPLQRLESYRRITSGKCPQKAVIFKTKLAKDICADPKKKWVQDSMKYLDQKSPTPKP

With `CO[C@H]1O[C@H](COS(=O)(=O)O)[C@@H](O[C@@H]2O[C@@H](C(=O)O)[C@@H](O[C@H]3O[C@H](COS(=O)(=O)O)[C@@H](O[C@@H]4O[C@H](C(=O)O)[C@@H](O[C@H]5O[C@H](COS(=O)(=O)O)[C@@H](O)[C@H](O)[C@H]5NS(=O)(=O)O)[C@H](O)[C@H]4O)[C@H](OS(=O)(=O)O)[C@H]3NS(=O)(=O)O)[C@H](O)[C@H]2OS(=O)(=O)O)[C@H](O)[C@H]1NS(=O)(=O)O` [Arixtra], the Kd on CCL2 is 7.98 ± 0.77 µM; on CCL11 (Eotaxin-1), 2.71 ± 0.284 µM.
